In article PMC7844219, “Antifibrotic effect of novel neutrophil gelatinase-associated lipocalin inhibitors in cardiac and renal disease models” (Scientific Reports, 2021):
Blank lines part the entries; values can stand above or below the compound they belong to.

What was measured:
hNGAL [1] = molecular target: T1, hNGAL (Homo sapiens, UniProt P80188); assay: Cell proliferation (MTT) in hNGAL-treated human cardiac fibroblasts; format: cell-based
T1 construct: purchased R&D Systems
Protocol: (§1) Primary human cardiac fibroblasts (HCF) were obtained from Promocell (Heidelberg, Germany) and maintained in Fibroblast Media 3 following manufacturer’s instructions (Promocell). Cells were used between passages 5 and 7. Cells were stimulated with recombinant hNGAL (500 ng/mL, R&D Systems) or with TGFβ (10 ng/mL, R&D Systems) for 24 h. To assess cell proliferation the MTT test was used following provider’s instructions (Roche). For protein analysis. Primary Mouse Kidney Fibroblasts (MKF) were isolated from Wild Type (WT) mice. Briefly, 8 weeks old mice were sacrificed by cervical dislocation and kidneys were cleaned and rinsed in cold DPBS (Dulbecco's Phosphate-Buffered Saline). The renal cortex was minced and incubated in Dulbecco’s modified eagle medium/Nutrient mixture F-12 (DMEM/F12, Sigma) containing 1 mg/mL collagenase A (Roche) during 25 min at 37 °C. The digestion was inactivated by adding culture medium (DMEM/F12 + 10% FBS) then the cell suspension was passed through a 100-μm cell strainer. After centrifugation, the pellet (containing MKF) was diluted with culture medium then plated in 75 cm^2 culture flask. After 24 h MKF were washed with DPBS before replacement of fresh culture medium. Thereafter, culture medium was changed every 48 h. Once 70–80% confluent, MKF were trypsinized and plated in 12 or 6-well plates. For experimental use, MKF were starved with culture medium containing only 3% FBS. MKF were treated with mNGAL (500 ng/mL, R&D Systems) or with TGFβ (10 ng/mL, R&D Systems) for 6 h for gene expression analysis.
Cell proliferation was assessed using the MTT Proliferation Assay (Sigma).

[2] = test system: isolated hepatocytes from swiss mice; assay: Hepatotoxicity, thiazolyl blue tetrazolium bromide (MTT) colorimetric assay; format: cell-based, mouse
Protocol: (§2) Several parameters have been evaluated to determine ADME-Tox profile of the compounds. Two specific toxicity assays have been performed to assess hepatoxicity and cardiotoxicity. Hepatotoxicity was evaluated in isolated hepatocytes from swiss mice and determined by the thiazolyl blue tetrazolium bromide colorimetric assay (sigma, St Louis, MO, USA). Cardiotoxicity was evaluated using the commercially available Predictor hERG fluorescence polarization kit (Thermo Fisher Scientific, Illinois, USA). Several absorption, distribution, metabolism, and excretion (ADME) assays have been carried out. The following experiments were undertaken: stability in human microsomes, binding to human plasma protein, and CYP3A4 inhibition assay (Vivid CYP3A4 assay, Thermo Fisher Scientific, Illinois, USA). Physico-chemical properties were also assessed such as aqueous solubility and chemical stability.

CYP3A4 = molecular target: T2, CYP3A4 (Homo sapiens, UniProt P08684); assay: CYP3A4 inhibition assay (Vivid CYP3A4 assay); format: in vitro ADME
T2 construct: purchased Thermo Fisher Scientific
T2 sequence (P08684 whole entry): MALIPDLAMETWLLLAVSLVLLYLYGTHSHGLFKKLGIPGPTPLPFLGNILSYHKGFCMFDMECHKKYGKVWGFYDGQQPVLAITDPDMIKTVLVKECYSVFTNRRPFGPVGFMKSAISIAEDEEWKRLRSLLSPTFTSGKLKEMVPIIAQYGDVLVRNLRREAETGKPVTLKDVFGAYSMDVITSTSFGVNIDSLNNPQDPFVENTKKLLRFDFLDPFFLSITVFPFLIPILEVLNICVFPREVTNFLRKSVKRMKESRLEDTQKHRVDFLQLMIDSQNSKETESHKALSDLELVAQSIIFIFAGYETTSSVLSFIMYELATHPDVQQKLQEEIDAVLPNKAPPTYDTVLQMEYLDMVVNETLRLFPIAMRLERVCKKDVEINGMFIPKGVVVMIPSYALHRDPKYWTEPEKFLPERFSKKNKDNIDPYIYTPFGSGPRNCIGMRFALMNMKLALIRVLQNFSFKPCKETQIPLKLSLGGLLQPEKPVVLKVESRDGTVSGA
Protocol: as §2

Aqueous solubility = format: physicochemical
Protocol: as §2

human plasma protein = assay: Binding to human plasma protein; format: in vitro ADME
Protocol: as §2

hNGAL [3] = molecular target: T1, hNGAL; assay: hNGAL-induced intracellular profibrotic protein levels in human cardiac fibroblasts (Western blot); format: cell-based; parameters: % inhibition versus hNGAL on Col I protein level / % inhibition versus hNGAL on Col III protein level / % inhibition versus hNGAL on Fibronectin protein level / % inhibition versus hNGAL on Galectin 3 protein level: concentration or dose not given beside the values
Protocol: as §1
Total protein aliquots of 20 μg were prepared from cardiac homogenates and HCF and electrophoresed on SDS polyacrylamide gels and transferred to Hybond-c Extra nitrocellulose membranes (Amersham Biosciences). Membranes were incubated with primary antibodies for: Collagen I (Santa Cruz; dilution 1:500), Collagen type III (Santa Cruz; dilution 1:500), fibronectin (Millipore, 1:500), Galectin-3 (Thermo, 1:1000), α-SMA (Sigma, 1:1000), CTGF (Santa Cruz, 1:200), CD68 (Abcam, 1:500), CD80 (Santa Cruz, 1:500), CD86 (Santa Cruz, 1:500). […] After densitometric analyses, optical density values were expressed as arbitrary units. Results are expressed as an n-fold increase over the values of the control group in densitometric arbitrary units.

hNGAL [4] = molecular target: T1, hNGAL; assay: hNGAL-induced IL6 and Col I secretion in human cardiac fibroblasts (ELISA); format: cell-based; parameters: % inhibition versus hNGAL on IL-6 secretion: concentration or dose not given beside the values; conditions: for IL-6 secretion: hNGAL-treated human cardiac fibroblasts, mean ± SEM
Protocol: as §1
IL6 and collagen type I concentrations were measured in cardiac tissue and cell supernatants by ELISA according to the manufacturer's instructions (R&D Systems).

hERG channel = molecular target: T3, hERG channel (Homo sapiens, UniProt Q12809); assay: Cardiotoxicity, Predictor hERG fluorescence polarization kit; format: binding
T3 construct: purchased Thermo Fisher Scientific
T3 sequence (Q12809 whole entry): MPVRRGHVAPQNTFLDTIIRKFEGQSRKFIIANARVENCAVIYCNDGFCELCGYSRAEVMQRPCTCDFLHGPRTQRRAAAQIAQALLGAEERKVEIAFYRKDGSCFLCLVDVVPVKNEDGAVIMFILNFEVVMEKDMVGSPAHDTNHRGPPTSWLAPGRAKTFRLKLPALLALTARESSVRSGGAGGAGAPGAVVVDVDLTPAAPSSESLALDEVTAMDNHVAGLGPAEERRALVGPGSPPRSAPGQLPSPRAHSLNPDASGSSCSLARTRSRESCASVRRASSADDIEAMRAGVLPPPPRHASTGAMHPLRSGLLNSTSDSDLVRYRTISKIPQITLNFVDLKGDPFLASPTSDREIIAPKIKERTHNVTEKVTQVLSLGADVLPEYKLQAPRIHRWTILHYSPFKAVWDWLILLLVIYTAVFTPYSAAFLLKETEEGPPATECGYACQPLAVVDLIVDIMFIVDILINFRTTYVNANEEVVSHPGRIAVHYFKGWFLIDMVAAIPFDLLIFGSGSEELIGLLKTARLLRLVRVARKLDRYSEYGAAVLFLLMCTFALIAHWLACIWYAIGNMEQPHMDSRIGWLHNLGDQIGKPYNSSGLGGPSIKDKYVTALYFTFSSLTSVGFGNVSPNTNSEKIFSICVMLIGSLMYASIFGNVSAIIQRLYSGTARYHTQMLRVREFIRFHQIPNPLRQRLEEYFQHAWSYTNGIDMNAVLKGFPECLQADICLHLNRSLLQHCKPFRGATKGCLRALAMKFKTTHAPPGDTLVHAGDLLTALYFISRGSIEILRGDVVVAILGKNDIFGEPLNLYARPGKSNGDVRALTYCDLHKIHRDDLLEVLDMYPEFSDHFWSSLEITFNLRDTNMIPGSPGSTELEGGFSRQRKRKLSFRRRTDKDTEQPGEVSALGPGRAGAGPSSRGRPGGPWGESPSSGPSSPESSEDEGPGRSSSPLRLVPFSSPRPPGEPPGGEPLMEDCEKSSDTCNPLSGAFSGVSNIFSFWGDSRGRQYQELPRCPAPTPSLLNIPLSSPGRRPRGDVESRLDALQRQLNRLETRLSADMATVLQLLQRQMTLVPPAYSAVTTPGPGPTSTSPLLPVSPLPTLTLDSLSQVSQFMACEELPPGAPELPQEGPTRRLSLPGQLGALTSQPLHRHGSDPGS
Protocol: as §2

Chemical stability = format: physicochemical; conditions: Table S5
Protocol: as §2

[5] = Table S2, human cardiac fibroblasts
[6] = 10 µM, human cardiac fibroblasts, Fig. 1C
[7] = Table S4, second generation compounds and parents, Control 1.00, NGAL 1.45
[8] = Table S4, second generation compounds and parents, human cardiac fibroblasts

T1 sequence (P80188 21-198): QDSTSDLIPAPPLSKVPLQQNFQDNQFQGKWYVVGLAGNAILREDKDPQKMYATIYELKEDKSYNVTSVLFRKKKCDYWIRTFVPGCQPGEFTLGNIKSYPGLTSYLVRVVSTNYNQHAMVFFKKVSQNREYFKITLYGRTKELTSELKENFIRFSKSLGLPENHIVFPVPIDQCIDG

- IL-6 secretion (hNGAL [4]; [7]): 0.69± 0.02
- % inhibition versus hNGAL on IL-6 secretion (hNGAL [4]; [8]): 52.4%
Structure (SMILES): CC(=O)c1ccc(S(=O)(=O)Nc2ccccc2-n2cccn2)cc1 [GPZ478519]

- IL-6 secretion (hNGAL [4]; [7]): 0.83± 0.02
- % inhibition versus hNGAL on IL-6 secretion (hNGAL [4]; [8]): 42.8%
Structure (SMILES): CC(=O)c1cccc(S(=O)(=O)NCc2ccccc2Cn2cccn2)c1 [GPZ505884]

- IL-6 secretion (hNGAL [4]; [7]): 0.88± 0.04
- % inhibition versus hNGAL on IL-6 secretion (hNGAL [4]; [8]): 39.3%
Structure (SMILES): N#Cc1cccc(S(=O)(=O)NCc2cccc(-n3cccn3)c2)c1 [GPZ778195]

- IL-6 secretion (hNGAL [4]; [7]): 0.93± 0.03
- % inhibition versus hNGAL on IL-6 secretion (hNGAL [4]; [8]): 35.9%
Structure (SMILES): CC(=O)c1cccc(S(=O)(=O)NCc2ccccc2-c2ccsc2)c1 [GPZ863205]

Second part, the compound before the results:

Structure (SMILES): CCS(=O)(=O)c1ccc2oc(SCc3cn4c(C)cc(C)nc4n3)nc2c1 [GPZ058225]
- hNGAL-induced cell proliferation, in words (hNGAL [1]; 10 µM, Fig. 1E): blocked
- Dose–response on proliferation induced by NGAL (hNGAL [1]; Fig. S2): able to block the proliferative effects of NGAL at 1 and 10 µM, but not at lower concentrations
- Hepatotoxicity (MTT) [2]: > 0.1 mM
- Hepatotoxicity ([2]; Table S5, MTT): > 100 µM
- CYP3A4 enzyme activity inhibited in a competition assay (CYP3A4): 32%
- CyP 3A4 Inhibition % (100= no inhibition) (CYP3A4; Table S5): 68.07 ± 1.52%
- Solubility in aqueous buffers, in words (Aqueous solubility): mild solubility problems
- Solubility test (Aqueous solubility): 63%
- Aquous solubility % (Aqueous solubility; Table S5): 63.46%
- Plasma protein binding (PPB), in words (human plasma protein): within an acceptance range
- hPPB% (human plasma protein; Table S5, human plasma protein binding): 89.11%
- hNGAL-induced expression of intracellular profibrotic proteins (Col I, Col III, fibronectin, Gal3), in words (hNGAL [3]; 10 µM, human cardiac fibroblasts, Fig. 1D): blocked
- Col III synthesis (protein level) (hNGAL [3]; Table S2, hNGAL-treated human cardiac fibroblasts, Control 1.0, NGAL 1.67, mean ± SEM): 1.05 ± 0.1
- Fibronectin synthesis (protein level) (hNGAL [3]; Table S2, hNGAL-treated human cardiac fibroblasts, Control 1.0, NGAL 1.8, mean ± SEM): 0.62 ± 0.1
- Col I synthesis (protein level) (hNGAL [3]; Table S2, hNGAL-treated human cardiac fibroblasts, Control 1.0, NGAL 2.03, mean ± SEM): 1.27 ± 0.1
- Galectin-3 synthesis (protein level) (hNGAL [3]; Table S2, hNGAL-treated human cardiac fibroblasts, Control 1.0, NGAL 2.1, mean ± SEM): 1.0 ± 0.2
- % inhibition versus hNGAL on Col I protein level (hNGAL [3]; [5]): 37.5%
- % inhibition versus hNGAL on Col III protein level (hNGAL [3]; [5]): 37.1%
- % inhibition versus hNGAL on Fibronectin protein level (hNGAL [3]; [5]): 65.5%
- % inhibition versus hNGAL on Galectin 3 protein level (hNGAL [3]; [5]): 52.3%
- Increase in IL6 secretion induced by NGAL (hNGAL [4]; 1 µM, human cardiac fibroblasts, Fig. S3): did not prevent
- NGAL-induced Col I secretion, in words (hNGAL [4]; [6]): fully inhibited
- NGAL-induced IL6 secretion, in words (hNGAL [4]; [6]): fully inhibited
- IL-6 secretion (hNGAL [4]; Table S1, first generation compounds, Control 1.0 ± 0.1, NGAL 2.21 ± 0.2): 0.99 ± 0.3
- % inhibition versus hNGAL on IL-6 secretion (hNGAL [4]; Table S1, first generation compounds, human cardiac fibroblasts): 55.2%
- IL-6 secretion (hNGAL [4]; [7]): 0.72 ± 0.02
- % inhibition versus hNGAL on IL-6 secretion (hNGAL [4]; [8]): 50.4%
- Inhibitor effect on hNGAL-induced IL6 secretion, in words (hNGAL [4]; human cardiac fibroblasts, text on Tables S1 and S4): important inhibitor effect
- Cardiotoxicity (hERG predictor assay), in words (hERG channel): did not block the hERG channel
- Chemical Stability % (Chemical stability): 92.2%

Structure (SMILES): O=C(Nc1nc2cc(F)c(F)cc2s1)c1cn2cccnc2n1 [GPZ278618]
- IL-6 secretion (hNGAL [4]; [7]): 0.86± 0.02
- % inhibition versus hNGAL on IL-6 secretion (hNGAL [4]; [8]): 40.1%

Structure (SMILES): CC(=O)c1cccc(S(=O)(=O)NCc2ccccc2-c2ccc(CN(C)C)cc2)c1 [GPZ642292]
- IL-6 secretion (hNGAL [4]; [7]): 0.64± 0.02
- % inhibition versus hNGAL on IL-6 secretion (hNGAL [4]; [8]): 55.9%

Structure (SMILES): Cc1cc(C)n2cc(CSc3nc4ccccc4[nH]3)nc2n1 [GPZ743042]
- IL-6 secretion (hNGAL [4]; [7]): 0.94 ± 0.03
- % inhibition versus hNGAL on IL-6 secretion (hNGAL [4]; [8]): 35.2%

Structure (SMILES): CCN1CCN(Cc2ccccc2CNS(=O)(=O)c2cccc(C(C)=O)c2)CC1 [GPZ913629]
- IL-6 secretion (hNGAL [4]; [7]): 0.93± 0.02
- % inhibition versus hNGAL on IL-6 secretion (hNGAL [4]; [8]): 35.9%
